Measurements: the supplement of paper PMC10307832

How the values were obtained:
Experiment in all cases: relative viability (nuclei count vs DMSO), 5 days (fraction); higher = more cells survive
Shikonin + Alpelisib = compound: CC(C)=CC[C@@H](O)C1=CC(=O)c2c(O)ccc(O)c2C1=O [Shikonin] + Cc1nc(NC(=O)N2CCC[C@H]2C(N)=O)sc1-c1ccnc(C(C)(C)C(F)(F)F)c1 [Alpelisib] (partner 2 µM)
Summary of the method: (§1)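 Medians of duplicate plates are given as relative viability. That measure is the nuclei count in treated wells divided by the count in vehicle wells. Counts were taken on 4× images of lung cancer cell lines in 1536-well plates, 5 days after pin-tool dosing the day after seeding with one drug alone or a fixed anchor-drug dose plus five library-drug doses (not always all listed) in √10 steps.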

Shikonin + Pemetrexed = compound: CC(C)=CC[C@@H](O)C1=CC(=O)c2c(O)ccc(O)c2C1=O [Shikonin] + Nc1nc2[nH]cc(CCc3ccc(C(=O)N[C@@H](CCC(=O)O)C(=O)O)cc3)c2c(=O)[nH]1 [Pemetrexed] (partner 0.2 µM)
Summary of the method: as §1

[1] = compound: CC(C)N(CCCNC(=O)Nc1ccc(C(C)(C)C)cc1)C[C@H]1O[C@@H](n2ccc3c(N)ncnc32)[C@H](O)[C@@H]1O + CS(=O)(=O)CCNCc1ccc(-c2ccc3ncnc(Nc4ccc(OCc5cccc(F)c5)c(Cl)c4)c3c2)o1 [Lapatinib] (partner 2 µM)
Summary of the method: as §1

[2] = compound: CC(C)N(CCCNC(=O)Nc1ccc(C(C)(C)C)cc1)C[C@H]1O[C@@H](n2ccc3c(N)ncnc32)[C@H](O)[C@@H]1O + Nc1ncn([C@H]2C[C@H](O)[C@@H](CO)O2)c(=O)n1 [Decitabine] (partner 2 µM)
Summary of the method: as §1

For UMC-11, the relative viability (Shikonin + Alpelisib; first compound 0.01 µM) was 0.875, the relative viability (Shikonin + Alpelisib; first compound 0.1 µM) was 1.08 and the relative viability (Shikonin + Alpelisib; first compound 0.3162 µM) was 0.996. The relative viability (Shikonin + Alpelisib; first compound 1 µM) was 1.18, the relative viability (Shikonin + Pemetrexed; first compound 0.01 µM) was 0.813 and the relative viability (Shikonin + Pemetrexed; first compound 0.1 µM) was 0.942. For the same cell line, the relative viability (Shikonin + Pemetrexed; first compound 0.3162 µM) was 0.836, the relative viability (Shikonin + Pemetrexed; first compound 1 µM) was 0.793 and the relative viability ([1]; first compound 0.08 µM) was 0.864. It also gave a relative viability ([1]; first compound 0.253 µM) of 0.772, a relative viability ([1]; first compound 0.8 µM) of 0.846 and a relative viability ([1]; first compound 2.53 µM) of 1.02. It also gave a relative viability ([1]; first compound 8 µM) of 1.05, a relative viability ([2]; first compound 0.08 µM) of 0.584 and a relative viability ([2]; first compound 0.253 µM) of 0.621. For the same cell line, the relative viability ([2]; first compound 0.8 µM) was 0.488, the relative viability ([2]; first compound 2.53 µM) was 0.534 and the relative viability ([2]; first compound 8 µM) was 0.585.
